Experiments:
[1] = molecular target: T1, His-tagged recombinant human AXL cytoplasmic domain (Homo sapiens, UniProt P30530); assay: AXL Enzyme Assay (LanthaScreen Eu Kinase Binding); settings: averaged IC50; 60-minute incubation at 22° C.; TR-FRET
T1 construct: His-tagged recombinant human AXL cytoplasmic domain
T1 sequence (P30530 473-894 limits assumed): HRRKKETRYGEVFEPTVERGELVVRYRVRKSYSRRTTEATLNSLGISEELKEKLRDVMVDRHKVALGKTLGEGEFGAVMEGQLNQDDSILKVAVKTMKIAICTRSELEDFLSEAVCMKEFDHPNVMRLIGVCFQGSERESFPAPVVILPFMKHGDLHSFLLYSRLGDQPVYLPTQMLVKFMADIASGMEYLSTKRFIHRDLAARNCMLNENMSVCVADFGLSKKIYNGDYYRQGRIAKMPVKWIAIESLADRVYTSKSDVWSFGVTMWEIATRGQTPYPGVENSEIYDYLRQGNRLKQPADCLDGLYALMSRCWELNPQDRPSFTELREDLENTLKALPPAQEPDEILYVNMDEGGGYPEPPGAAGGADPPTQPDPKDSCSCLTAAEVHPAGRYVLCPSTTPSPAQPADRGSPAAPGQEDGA
In short: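 TR-FRET binding-displacement format: 20 nM Alexa Fluor Tracer 236, 2 nM biotin-anti-His and 2 nM Eu-streptavidin in 25 mM HEPES pH 7.4, 10 mM MgCl2, 0.01% Triton X-100, 2% DMSO. After 60 min at 22 °C, ratiometric percent of control was fitted to a 4-parameter logistic curve, IC50 taken at 50 POC.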

[2] = molecular target: T2, His-tagged recombinant human MER cytoplasmic domain (Homo sapiens, UniProt Q12866); assay: MER Enzyme Assay (LanthaScreen Eu Kinase Binding); settings: averaged IC50; MER 5 nM; 60-minute incubation at 22° C.; TR-FRET
T2 construct: His-tagged recombinant human MER cytoplasmic domain
T2 sequence (Q12866 527-999 limits assumed): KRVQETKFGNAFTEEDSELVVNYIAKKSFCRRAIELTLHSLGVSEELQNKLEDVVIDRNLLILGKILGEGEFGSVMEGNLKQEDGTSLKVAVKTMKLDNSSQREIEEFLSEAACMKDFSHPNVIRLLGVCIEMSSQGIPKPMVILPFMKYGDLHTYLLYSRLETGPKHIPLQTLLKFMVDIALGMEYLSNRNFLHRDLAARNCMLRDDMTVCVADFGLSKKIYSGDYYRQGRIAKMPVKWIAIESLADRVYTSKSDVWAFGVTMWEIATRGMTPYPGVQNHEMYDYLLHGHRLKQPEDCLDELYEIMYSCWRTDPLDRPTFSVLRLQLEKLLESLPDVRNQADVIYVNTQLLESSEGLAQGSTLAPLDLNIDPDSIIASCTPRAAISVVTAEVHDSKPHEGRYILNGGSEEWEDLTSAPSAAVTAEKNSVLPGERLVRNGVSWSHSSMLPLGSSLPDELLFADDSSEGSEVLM
In short: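 TR-FRET binding: 5 nM His-MER cytoplasmic domain with 20 nM Tracer 236, 2 nM biotin-anti-His and 2 nM Eu-streptavidin in pH 7.4 HEPES, 10 mM MgCl2, 2% DMSO, with threefold compound dilutions, 60 min at 22 °C. Percent of control was fit to a 4-parameter logistic, and IC50 was taken at 50 POC.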

[3] = molecular target: T3, MET (wt) GST-tagged recombinant human MET kinase domain (Homo sapiens, UniProt P08581); assay: c-Met Enzyme Assay, wild type (LanthaScreen Eu Kinase Binding); settings: averaged IC50; MET (wt) 10 nM; 60-minute incubation at 22° C.; read-out: SigChem WT IC50
T3 construct: GST-tagged recombinant human MET kinase domain; purchased Signal Chem
T3 sequence (P08581 1078-1345 limits assumed): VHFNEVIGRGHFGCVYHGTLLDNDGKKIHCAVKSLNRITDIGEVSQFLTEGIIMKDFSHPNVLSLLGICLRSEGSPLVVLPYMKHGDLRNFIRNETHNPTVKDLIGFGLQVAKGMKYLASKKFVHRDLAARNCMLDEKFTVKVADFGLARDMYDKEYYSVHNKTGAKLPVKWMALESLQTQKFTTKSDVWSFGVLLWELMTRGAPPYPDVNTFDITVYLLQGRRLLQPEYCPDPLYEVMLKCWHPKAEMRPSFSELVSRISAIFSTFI
In short: (§1)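 LanthaScreen Eu TR-FRET binding: GST-tagged recombinant MET kinase domain incubated with compound, 50 nM Alexa-Fluor Tracer 236 and 2 nM Eu-anti-GST in 25 mM HEPES pH 7.4, 10 mM MgCl2, 1 mM DTT, 2% DMSO, 60 min at 22 °C. Ratiometric emission gave percent of control; IC50 from 4-parameter fit at 50 POC.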

[4] = molecular target: T4, human MET kinase del Ex14 (Homo sapiens, UniProt P08581, DEL963-1009); assay: c-Met Enzyme Assay, del Ex14 mutant; type: binding; settings: averaged IC50; del Ex14 5 nM; 60-minute incubation at 22° C.; read-out: Del14 IC50
T4 construct: GST-tagged recombinant human MET kinase domain; purchased Signal Chem
T4 sequence (P08581 with tags, fused parts or gaps DEL963-1009 limits assumed): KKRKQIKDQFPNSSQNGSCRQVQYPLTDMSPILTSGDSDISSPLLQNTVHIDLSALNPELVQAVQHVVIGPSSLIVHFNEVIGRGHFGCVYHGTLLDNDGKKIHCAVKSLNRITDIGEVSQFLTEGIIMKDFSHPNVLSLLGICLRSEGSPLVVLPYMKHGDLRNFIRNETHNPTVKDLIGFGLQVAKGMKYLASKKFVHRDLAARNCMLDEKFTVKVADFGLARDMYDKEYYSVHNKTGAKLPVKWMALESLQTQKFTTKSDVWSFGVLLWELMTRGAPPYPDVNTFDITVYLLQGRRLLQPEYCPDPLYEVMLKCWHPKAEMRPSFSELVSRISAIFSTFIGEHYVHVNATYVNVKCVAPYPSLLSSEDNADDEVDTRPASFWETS
In short: as §1

human MET kinase D1228H = molecular target: T5, human MET kinase D1228H (Homo sapiens, UniProt P08581, D1228H); assay: c-Met Enzyme Assay, D1228H mutant; type: binding; settings: averaged IC50; D1228H 2 nM; 60-minute incubation at 22° C.; read-out: D1228 H IC50
T5 construct: GST-tagged recombinant human MET kinase domain; purchased Signal Chem
T5 sequence (P08581 1078-1345 D1228H): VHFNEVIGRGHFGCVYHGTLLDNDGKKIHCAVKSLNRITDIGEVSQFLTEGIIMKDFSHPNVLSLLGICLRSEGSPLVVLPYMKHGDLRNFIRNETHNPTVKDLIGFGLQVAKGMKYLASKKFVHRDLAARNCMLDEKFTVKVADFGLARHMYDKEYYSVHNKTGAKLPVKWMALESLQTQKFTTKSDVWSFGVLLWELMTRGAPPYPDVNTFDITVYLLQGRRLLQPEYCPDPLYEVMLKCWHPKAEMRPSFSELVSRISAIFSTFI
In short: as §1

human MET kinase Y1230C = molecular target: T6, human MET kinase Y1230C (Homo sapiens, UniProt P08581, Y1230C); assay: c-Met Enzyme Assay, Y1230C mutant; type: binding; settings: averaged IC50; Y1230C 2 nM; 60-minute incubation at 22° C.; read-out: Y1230 C IC50
T6 construct: GST-tagged recombinant human MET kinase domain; purchased Signal Chem
T6 sequence (P08581 1078-1345 Y1230C): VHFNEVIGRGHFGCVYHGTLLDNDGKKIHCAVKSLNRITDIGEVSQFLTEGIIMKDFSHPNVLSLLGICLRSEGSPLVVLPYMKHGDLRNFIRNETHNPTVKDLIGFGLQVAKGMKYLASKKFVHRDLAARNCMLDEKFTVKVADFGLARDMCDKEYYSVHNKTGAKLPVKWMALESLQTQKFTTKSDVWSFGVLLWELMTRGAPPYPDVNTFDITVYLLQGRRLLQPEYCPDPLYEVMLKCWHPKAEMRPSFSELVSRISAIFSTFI
In short: as §1

human MET kinase Y1230S = molecular target: T7, human MET kinase Y1230S (Homo sapiens, UniProt P08581, Y1230S); assay: c-Met Enzyme Assay, Y1230S mutant; type: binding; settings: averaged IC50; Y1230S 8 nM; 60-minute incubation at 22° C.; read-out: Y1230 S IC50
T7 construct: GST-tagged recombinant human MET kinase domain; purchased Signal Chem
T7 sequence (P08581 1078-1345 Y1230S): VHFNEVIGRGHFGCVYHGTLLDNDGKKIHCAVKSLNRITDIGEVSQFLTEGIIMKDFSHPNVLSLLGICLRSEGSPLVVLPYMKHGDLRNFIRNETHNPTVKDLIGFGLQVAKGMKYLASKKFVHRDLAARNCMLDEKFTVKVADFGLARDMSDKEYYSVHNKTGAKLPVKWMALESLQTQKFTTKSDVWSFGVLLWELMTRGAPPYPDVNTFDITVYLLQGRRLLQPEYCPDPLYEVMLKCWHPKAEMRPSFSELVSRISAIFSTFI
In short: as §1

SMILES | IC50 [1] | IC50 [2] | IC50 [3] | IC50 [4] | IC50 (human MET kinase D1228H) | IC50 (human MET kinase Y1230C) | IC50 (human MET kinase Y1230S)
COc1cc2nccc(Oc3ccc(NC(=O)c4c[nH]cc(-c5ccc(F)cc5)c4=O)nc3)c2cc1OC [Example 26, N-(5-((6,7-dimethoxyquinolin-4yl)oxy)pyridin-2-yl)-5-(4-fluorophenyl)-4-oxo-1,4-dihydropyridine-3-carboxamide] | 7 nM | 5 nM | 6 nM | 5.2 nM | 12.5 nM | 6.5 nM | 9.1 nM
COc1ccc(-c2cn(C(C)C)cc(C(=O)Nc3ccc(Oc4ccnc5cc(OC)c(OC)cc45)cn3)c2=O)c(F)c1 [Example 31, N-(5-((6,7-dimethoxyquinolin-4yl)oxy)pyridin-2-yl)-5-(2-fluoro-4-methoxyphenyl)-1-isopropyl-4-oxo-1,4-dihydropyridine-3-carboxamide] | 1 nM | 5 nM | 41 nM | 44.7 nM | 55.7 nM | 69.3 nM | 72.1 nM
COc1cc2nccc(Oc3ccc(NC(=O)c4cn(C(C)C)cc(-c5ccc(F)cc5Cl)c4=O)nc3)c2cc1OC [Example 18, 5-(2-chloro-4-fluorophenyl)-N-(5-((6,7-dimethoxyquinolin-4-yl)oxy)pyridin-2-yl)-1-isopropyl-4-oxo-1,4-dihydropyridine-3-carboxamide] | 2 nM | 2 nM | 2.7 nM | 3.2 nM | 2.4 nM | 2.4 nM | 2.7 nM
COc1cc2c(Oc3ccc(NC(=O)c4cn(C(C)C)c(C)c(-c5ccc(F)cc5)c4=O)nc3)ccnc2cc1F [Example 48, N-(5-((7-fluoro-6-methoxyquinolin-4yl)oxy)pyridin-2-yl)-5-(4-fluorophenyl)-1-isopropyl-6-methyl-4-oxo-1,4-dihydropyridine-3-carboxamide] | 2 nM | 5 nM | 6.8 nM | 4.9 nM | 11.9 nM | 9.4 nM | 8.8 nM
COc1cc(-c2cn(C(C)C)cc(C(=O)Nc3ccc(Oc4ccnc5cc(OC)c(OC)cc45)cn3)c2=O)ccc1F [Example 20, N-(5-((6,7-dimethoxyquinolin-4yl)oxy)pyridin-2-yl)-5-(4-fluoro-3-methoxyphenyl)-1-isopropyl-4-oxo-1,4-dihydropyridine-3-carboxamide] | 3 nM | 3 nM | 5.2 nM | 3.8 nM | 9.9 nM | 7.7 nM | 6.2 nM
COc1cc2nccc(Oc3ccc(NC(=O)c4cn(CCC(C)C)cc(-c5ccc(Cl)cc5)c4=O)nc3)c2cc1OC [Example 37] | 5 nM | 16 nM | 10 nM | 12.2 nM | 10.5 nM | 9.3 nM | 10.2 nM
COc1ccc(-c2cn(C(C)C)cc(C(=O)Nc3ccc(Oc4ccnc5cc(OC)c(OC)cc45)cn3)c2=O)cc1 [Example 30, N-(5-((6,7-dimethoxyquinolin-4yl)oxy)pyridin-2-yl)-1-isopropyl-5-(4-methoxyphenyl)-4-oxo-1,4-dihydropyridine-3-carboxamide] | 2 nM | 5 nM | 39.7 nM | 50.3 nM | 57.4 nM | 83.5 nM | 89.2 nM
COc1ccc2nccc(Oc3ccc(NC(=O)c4cn(CCN(C)C)cc(-c5ccc(F)cc5)c4=O)nc3)c2c1 [Example 47] | 1 nM | 7 nM | 10.2 nM | 14.3 nM | 31.1 nM | 8.8 nM | 18.9 nM
CCCC(CCC)n1cc(C(=O)Nc2ccc(Oc3ccnc4cc(OC)c(OC)cc34)cn2)c(=O)c(-c2ccc(F)cc2F)c1 [Example 17, 5-(2,4-difluorophenyl)-N-(5-((6,7-dimethoxyquinolin-4yl)oxy)pyridin-2-yl)-1-(heptan-4-yl)-4-oxo-1,4-dihydropyridine-3-carboxamide] | 28 nM | 52 nM | 17.8 nM | 17.1 nM | 13.3 nM | 15.5 nM | 11.4 nM
